SMILES strings stand for the structures.

This note sets out measurements from article PMC9078697, “Discovery and preliminary SAR of 14-aryloxy-andrographolide derivatives as antibacterial agents with immunosuppressant activity” (RSC Advances, 2018).

What all share (assay type): cell-based
One assay deals with S. aureus. Kind of assay: Bacteriostatic screening (growth, OD630) against S. aureus. Conditions: for inhibition rate (%) SA: at 250 μM of the tested compound; for inhibition rate SA (symbol /): at 250 μM of tested compound. The protocol:
(§1) The strategy in this study was to submit these synthesized compounds to a preliminary screening test against E. coli, S. aureus and E. faecalis (ciprofloxacin was used as a reference compound; see Table 1). […] The tested compound or ciprofloxacin (positive drug) was dissolved in DMSO and diluted with LB liquid medium into a stock solution containing 20% DMSO before use; the stock solution of the carrier was 20% DMSO in LB liquid medium. All the experiments, including blank controls, were performed in triplicate. Bacteriostatic screening was performed by applying a modified protocol of the National Committee on Clinical Laboratory Standards (NCCLS).[29] Briefly, E. coli, S. aureus and E. faecalis cells (American Type Culture Collection, ATCC) were grown in LB plate medium for one passage, then seeded in LB liquid medium and cultured at 37 °C for 12 h. After being diluted 1000 times, 190 μL diluted cells were aliquoted to 96-well plates; then, 10 μL stock solution of carrier or a gradient amount of the tested compound or the positive compound, ciprofloxacin, were added; the final concentration of DMSO was 1% in all wells. The blank controls contained 1% DMSO and LB medium but no bacterial cells.

For another assay, the system named is E. coli. Kind of assay: Bacteriostatic screening (growth, OD630) against E. coli. Particulars: for inhibition rate EC (symbol /): at 250 μM of tested compound; for inhibition rate (%) EC: at 250 μM of the tested compound. The protocol: as §1
In the next assay the test system is E. faecalis. Kind of assay: Bacteriostatic screening (growth, OD630) against E. faecalis. Particulars: for IC50: 24 h, IC50 generated when inhibition at 250 μM was higher than 80%; for inhibition rate (%) EF: at 250 μM of the tested compound. The protocol:
as §1

Take `C=C1CCC2C3(C)COC(C)(C)OC3CCC2(C)C1CC=C1C(=O)OCC1Oc1ccc([N+](=O)[O-])cc1C(=O)OC` (stereo not drawn) [5a1, (14α)-(2′-Carboxymethyl ester-4′-nitro)phenoxy-3,19-acetonylidene andrographolide]: in the assay on S. aureus (250 µM), the “inhibition rate (%) SA” value is “(14) %”. Also, the “inhibition rate EC (symbol /)” value with E. coli was “/ (“/”represents no inhibition or lower than 10% inhibition rate at 250 μM of tested compound)”. In the assay with E. faecalis, this compound returned a half-maximal inhibitory concentration (IC50) of 51.2 ± 11.6 µM.

`C=C1CCC2C3(C)COC(C)(C)OC3CCC2(C)C1CC=C1C(=O)OCC1Oc1ccc([N+](=O)[O-])cc1OC` (stereo not drawn) [5a3, (14α)-(2′-Methoxy-4′-nitro)phenoxy-3,19-acetonylidene andrographolide]: in the assay on S. aureus (250 µM), the “inhibition rate (%) SA” value is “(18) %”. In addition, the “inhibition rate (%) EC” value in the assay with E. coli is “(21) %”. For the same compound, the “inhibition rate (%) EF” value with E. faecalis (250 µM) is on record as “(60) %”.

Consider `C=C1CCC2C3(C)COC(C)(C)OC3CCC2(C)C1CC=C1C(=O)OCC1Oc1ccc([N+](=O)[O-])c(F)c1` (stereo not drawn) [5a4, (14α)-(3′-Fluoro-4′-nitro)phenoxy-3,19-acetonylidene andrographolide], for which the “inhibition rate SA (symbol /)” value in the assay with S. aureus is “/ (“/”represents no inhibition or lower than 10% inhibition rate at 250 μM of tested compound)”. For the same compound, the “inhibition rate EC (symbol /)” value in the assay on E. coli was “/ (“/”represents no inhibition or lower than 10% inhibition rate at 250 μM of tested compound)”. The “inhibition rate (%) EF” value in the assay with E. faecalis is “(46) %”.

As to `C=C1CCC2C3(C)COC(C)(C)OC3CCC2(C)C1CC=C1C(=O)OCC1Oc1ccc([N+](=O)[O-])c(OC)c1` (stereo not drawn) [5a5, (14α)-(3′-Methoxy-4′-nitro)phenoxy-3,19-acetonylidene andrographolide], the “inhibition rate (%) SA” value with S. aureus (250 µM) is reported as “(10) %”. Moreover, the “inhibition rate (%) EC” value in the assay on E. coli (250 µM) is “(12) %”. Also, in the assay on E. faecalis (250 µM), the “inhibition rate (%) EF” value is “(73) %”.

Consider `C=C1CCC2C3(C)COC(C)(C)OC3CCC2(C)C1CC=C1C(=O)OCC1Oc1ccccc1C(=O)OCC` (stereo not drawn) [5a8, (14α)-(2′-Carboxyethyl ester)phenoxy-3,19-acetonylidene andrographolide], for which the “inhibition rate (%) SA” value in the assay on S. aureus is recorded as “(20) %”. For the same compound, in the assay on E. coli, the “inhibition rate (%) EC” value is “(32) %”. Moreover, the “inhibition rate (%) EF” value in the assay with E. faecalis is given as “(33) %”.

On to `C=C1CCC2C3(C)COC(C)(C)OC3CCC2(C)C1CC=C1C(=O)OCC1Oc1ccc(C(=O)OCC)cc1` (stereo not drawn) [5a9, (14α)-(4′-Carboxyethyl ester)phenoxy-3,19-acetonylidene andrographolide], for which, in the assay on S. aureus, the “inhibition rate (%) SA” value is “(10) %”. The “inhibition rate EC (symbol /)” value with E. coli is “/ (“/”represents no inhibition or lower than 10% inhibition rate at 250 μM of tested compound)”. Also, the “inhibition rate (%) EF” value with E. faecalis is “(45) %”.

In the case of `C=C1CCC2C3(C)COC(C)(C)OC3CCC2(C)C1CC=C1C(=O)OCC1Oc1ccccc1OC` (stereo not drawn) [5a12, (14α)-(2′-Methoxy)phenoxy-3,19-acetonylidene andrographolide], the “inhibition rate SA (symbol /)” value in the assay on S. aureus is “/ (“/”represents no inhibition or lower than 10% inhibition rate at 250 μM of tested compound)”. For the same compound, the “inhibition rate EC (symbol /)” value in the assay on E. coli was “/ (“/”represents no inhibition or lower than 10% inhibition rate at 250 μM of tested compound)”. Besides, the “inhibition rate (%) EF” value with E. faecalis (250 µM) is recorded as “(49) %”.

For the compound `C=C1CCC2C3(C)COC(C)(C)OC3CCC2(C)C1CC=C1C(=O)OCC1Oc1cccnc1[N+](=O)[O-]` (stereo not drawn) [5a15, (14α)-(2′-Nitro-pyridinyl-3′-oxy)-3,19-acetonylidene andrographolide], the “inhibition rate (%) SA” value in the assay with S. aureus (250 µM) is on record as “(11) %”. Moreover, the “inhibition rate (%) EC” value in the assay on E. coli is recorded as “(13) %”. The half-maximal inhibitory concentration (IC50) in the assay on E. faecalis turned out to be 25.5 ± 1.5 µM.

On to `C=C1CCC2C3(C)COC(C)(C)OC3CCC2(C)C1CC=C1C(=O)OCC1Oc1ccnc2ccccc12` (stereo not drawn) [5a16, (14α)-(Quinolyl-4′-oxy)-3,19-acetonylidene andrographolide], for which, in the assay on S. aureus, the “inhibition rate (%) SA” value is on record as “(14) %”. The “inhibition rate EC (symbol /)” value with E. coli is reported as “/ (“/”represents no inhibition or lower than 10% inhibition rate at 250 μM of tested compound)”. Besides, half-maximal inhibition in the assay with E. faecalis (IC50) required 16.9 ± 5.9 µM.

On to `C=C1CCC2C3(C)COC(C)(C)OC3CCC2(C)C1CC=C1C(=O)OCC1Oc1ccc([N+](=O)[O-])cc1C(=O)OC` (stereo not drawn) [5b1, (14β)-(2′-Carboxymethyl ester-4′-nitro)phenoxy-3,19-acetonylidene andrographolide], for which, in the assay with S. aureus (250 µM), the “inhibition rate (%) SA” value is listed as “(20) %”. Further, the “inhibition rate (%) EC” value with E. coli is listed as “(22) %”. Besides, the “inhibition rate (%) EF” value in the assay with E. faecalis is “(56) %”.

For the compound `C=C1CCC2C3(C)COC(C)(C)OC3CCC2(C)C1CC=C1C(=O)OCC1Oc1ccc([N+](=O)[O-])cc1F` (stereo not drawn) [5b2, (14β)-(2′-Fluoro-4′-nitro)phenoxy-3,19-acetonylidene andrographolide], in the assay on S. aureus, the “inhibition rate (%) SA” value is “(26) %”. In the assay with E. coli, the “inhibition rate (%) EC” value is listed as “(11) %”. In the assay on E. faecalis, the “inhibition rate (%) EF” value is on record as “(56) %”.

For the compound `C=C1CCC2C3(C)COC(C)(C)OC3CCC2(C)C1CC=C1C(=O)OCC1Oc1ccc([N+](=O)[O-])cc1OC` (stereo not drawn) [5b3, (14β)-(2′-Methoxy-4′-nitro)phenoxy-3,19-acetonylidene andrographolide], in the assay on S. aureus (250 µM), the “inhibition rate (%) SA” value was “(16) %”. For the same compound, in the assay on E. coli, the “inhibition rate EC (symbol /)” value is “/ (“/”represents no inhibition or lower than 10% inhibition rate at 250 μM of tested compound)”. In the assay with E. faecalis (250 µM), the “inhibition rate (%) EF” value is given as “(19) %”.

For `C=C1CCC2C3(C)COC(C)(C)OC3CCC2(C)C1CC=C1C(=O)OCC1Oc1ccc([N+](=O)[O-])c(OC)c1` (stereo not drawn) [5b5, (14β)-(3′-Methoxy-4′-nitro)phenoxy-3,19-acetonylidene andrographolide], the “inhibition rate (%) SA” value in the assay on S. aureus (250 µM) is reported as “(32) %”. Further, the “inhibition rate (%) EC” value in the assay with E. coli (250 µM) is “(18) %”. Besides, the “inhibition rate (%) EF” value with E. faecalis (250 µM) is recorded as “(34) %”.

As for `C=C1CCC2C3(C)COC(C)(C)OC3CCC2(C)C1CC=C1C(=O)OCC1Oc1cccc([N+](=O)[O-])c1` (stereo not drawn) [5b7, (14β)-(3′-Nitro)phenoxy-3,19-acetonylidene andrographolide], the “inhibition rate SA (symbol /)” value in the assay on S. aureus is given as “/ (“/”represents no inhibition or lower than 10% inhibition rate at 250 μM of tested compound)”. Further, in the assay on E. coli, the “inhibition rate EC (symbol /)” value is on record as “/ (“/”represents no inhibition or lower than 10% inhibition rate at 250 μM of tested compound)”. For the same compound, the “inhibition rate EF (symbol /)” value in the assay on E. faecalis (at 250 μM of tested compound) is recorded as “/ (“/”represents no inhibition or lower than 10% inhibition rate at 250 μM of tested compound)”.

With `C=C1CCC2C3(C)COC(C)(C)OC3CCC2(C)C1CC=C1C(=O)OCC1Oc1ccc(OC)cc1` (stereo not drawn) [5b11, (14β)-(4′-Methoxy)phenoxy-3,19-acetonylidene andrographolide], the “inhibition rate SA (symbol /)” value in the assay with S. aureus is “/ (“/”represents no inhibition or lower than 10% inhibition rate at 250 μM of tested compound)”. Besides, in the assay on E. coli, the “inhibition rate EC (symbol /)” value was “/ (“/”represents no inhibition or lower than 10% inhibition rate at 250 μM of tested compound)”. Besides, the “inhibition rate (%) EF” value with E. faecalis was “(39) %”.

Turning to `C=C1CCC2C3(C)COC(C)(C)OC3CCC2(C)C1CC=C1C(=O)OCC1Oc1ccccc1OC` (stereo not drawn) [5b12, (14β)-(2′-Methoxy)phenoxy-3,19-acetonylidene andrographolide], the “inhibition rate (%) SA” value with S. aureus is reported as “(24) %”. In addition, the “inhibition rate EC (symbol /)” value in the assay with E. coli was “/ (“/”represents no inhibition or lower than 10% inhibition rate at 250 μM of tested compound)”. In the assay with E. faecalis (250 µM), the “inhibition rate (%) EF” value is “(52) %”.

As for `C=C1CCC2C3(C)COC(C)(C)OC3CCC2(C)C1CC=C1C(=O)OCC1Oc1cccc(OC)c1` (stereo not drawn) [5b13, (14β)-(3′-Methoxy)phenoxy-3,19-acetonylidene andrographolide], the “inhibition rate SA (symbol /)” value in the assay with S. aureus was “/ (“/”represents no inhibition or lower than 10% inhibition rate at 250 μM of tested compound)”. The “inhibition rate EC (symbol /)” value with E. coli was “/ (“/”represents no inhibition or lower than 10% inhibition rate at 250 μM of tested compound)”. Also, the “inhibition rate (%) EF” value in the assay with E. faecalis was “(17) %”.

The IC50 is the concentration needed to halve the response being measured.
